Data on 24 compounds can be found in publication PMC9687812, “Discovery of Trace Amine-Associated Receptor 1 (TAAR1) Agonist 2-(5-(4′-Chloro-[1,1′-biphenyl]-4-yl)-4H-1,2,4-triazol-3-yl)ethan-1-amine (LK00764) for the Treatment of Psychotic Disorders” (Biomolecules, 2022).

Where two headings read alike, the source gives them in different places.

Data set [1] has as its target T1, TAAR1 (Homo sapiens, UniProt Q96RJ0).
T1 sequence (Q96RJ0 1-339): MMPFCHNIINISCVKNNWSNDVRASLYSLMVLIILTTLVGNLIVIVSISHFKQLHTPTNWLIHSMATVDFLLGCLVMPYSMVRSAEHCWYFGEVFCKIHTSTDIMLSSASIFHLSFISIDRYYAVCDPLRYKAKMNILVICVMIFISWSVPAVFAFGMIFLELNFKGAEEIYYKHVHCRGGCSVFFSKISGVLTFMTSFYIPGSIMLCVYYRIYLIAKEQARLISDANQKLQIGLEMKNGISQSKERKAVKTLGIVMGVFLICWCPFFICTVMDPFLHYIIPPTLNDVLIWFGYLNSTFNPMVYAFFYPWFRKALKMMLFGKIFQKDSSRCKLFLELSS
The data set is described as follows: BRET-based cellular cAMP (EPAC biosensor) assay of TAAR1 agonism in transfected HEK-293 cells. Conditions: for Emax: maximum observed activation of TAAR1 relative to that observed for 1 μM of β-PEA: relative to 1 μM β-PEA, mean from 3 BRET assays, errors ±5–10%; for Emax: HEK293, read-out: Emax: maximum observed activation of TAAR1 relative to that observed for 1 μM of β-PEA. For orientation: BRET reads energy transfer from a luciferase to a nearby fluorophore.
Protocol: The Bioluminescence Resonance Energy Transfer approach (BRET) has been used for functional activity experiments. HEK-293 cells were transiently transfected with cDNA for TAARs and cAMP BRET biosensor (EPAC) and then plated in a 96-well plate, as described [23]. All compounds were tested at the initial concentration of 10 µM. […] A natural agonist of TAAR1 β-phenylethylamine (β-PEA) was used as a positive control.

Where [2] appears, read: TAAR1 activation, BRET assay, HEK-293, mean from 3 assays.

On to “2-(5-(2-[3,4-Difluorophenoxy]phenyl)-4H-1,2,4-triazol-3-yl) Hydrochloride [Compound 50]”, for which the EC50 entry in data set [1] (setting [2]) is “inactive”. In data set [1], the “Emax: maximum observed activation of TAAR1 relative to that observed for 1 μM of β-PEA” value was “inactive”.
The compound `Cc1cc(C)cc(-c2nnc(CCN)[nH]2)c1.Cl` [Compound 31, 2-(5-(3,5-Dimethylphenyl)-4H-1,2,4-triazol-3-yl)ethan-1-amine Hydrochloride] came in with a melting point of 232 to 234 °C. In data set [1], a half-maximal response (EC50) required 0.813 µM and the Emax came to 117%.
The corresponding values for `Cl.NCCc1nnc(-c2ccc(OCc3ccccc3F)cc2)[nH]1` [Compound 43, 2-(5-(4-[(2-Fluorobenzyl)oxy]phenyl)-4H-1,2,4-triazol-3-yl)ethan-1-amine Hydrochloride] are 232 to 235 °C, 0.045 µM and 114%.
In turn, `Cl.NCCc1nnc(-c2ccc([N+](=O)[O-])cc2)[nH]1` [Compound 14, 2-(5-(4-Nitrophenyl)-4H-1,2,4-triazol-3-yl)ethan-1-amine Hydrochloride] registered a melting point of 239 to 240 °C. Also, in data set [1] (setting [2]), the EC50 entry is “inactive”. Moreover, the “Emax: maximum observed activation of TAAR1 relative to that observed for 1 μM of β-PEA” value in data set [1] was “inactive”.
As for `Cl.NCCc1nnc(-c2ccc(-c3cccc(F)c3)cc2)[nH]1` [Compound 60, 2-(5-(3′-Fluoro-(1,1′-biphenyl)-4-yl)-4H-1,2,4-triazol-3-yl)ethan-1-amine Hydrochloride], the melting point lay within 260 to 262 °C. In addition, in data set [1], the concentration giving a half-maximal response (EC50) was determined as 0.026 µM and the Emax stood at 95%.
With `Cl.NCCc1nnc(-c2cccc(C(F)(F)F)c2)[nH]1` [Compound 8, 2-(5-(3-[Trifluoromethyl]phenyl)-4H-1,2,4-triazol-3-yl)ethan-1-amine Hydrochloride], in data set [1] (setting [2]), the EC50 came to 0.21 µM. For the same compound, the “Emax: maximum observed activation of TAAR1 relative to that observed for 1 μM of β-PEA” value in data set [1] is listed as 108.
For `COc1cc(OC)cc(-c2nnc(CCN)[nH]2)c1.Cl` [Compound 33, 2-(5-(3,5-Dimethoxyphenyl)-4H-1,2,4-triazol-3-yl)ethan-1-amine Hydrochloride], the melting point is 245 to 247 °C. Further, in data set [1], the Emax came out at 55%. In addition, in data set [1] (setting [2]), the EC50 was more than 1 µM.
The compound `CCOc1ccc(-c2nnc(CCN)[nH]2)cc1.Cl` [Compound 25, 2-(5-(4-Ethoxyphenyl)-4H-1,2,4-triazol-3-yl)ethan-1-amine Hydrochloride] registered a melting point of 235 to 236 °C. In data set [1], a half-maximal effect (EC50) was put at 0.55 µM and the maximal response (Emax) stood at 139%.
`COc1cccc(-c2nnc(CCN)[nH]2)c1.Cl` [Compound 7, 2-(5-(3-Methoxyphenyl)-4H-1,2,4-triazol-3-yl)ethan-1-amine Hydrochloride] registered a melting point of 235 to 236 °C. Further, in data set [1], the EC50 was 0.91 µM and the Emax came out at 132%.
The corresponding values for `Cl.NCCc1nnc(-c2ccc(Cl)cc2)[nH]1` [Compound 28, 2-(5-(4-Chlorophenyl)-4H-1,2,4-triazol-3-yl)ethan-1-amine Hydrochloride] are 239 to 241 °C, 0.522 µM and 107%.
Taken in the same sequence, the figures for `Cl.NCCc1nnc(-c2cccs2)[nH]1` [Compound 16, 2-(5-(Thiophen-2-yl)-4H-1,2,4-triazol-3-yl)ethan-1-amine Hydrochloride] were 248 to 250 °C, more than 1 µM and 138%.
`Cl.NCCc1nnc(-c2ccccc2Br)[nH]1` [Compound 29, 2-(5-(2-Bromophenyl)-4H-1,2,4-triazol-3-yl)ethan-1-amine Hydrochloride]: the melting point lay in the range of 194 to 196 °C. For the same compound, in data set [1], the EC50 came out at 0.696 µM and the Emax was found to be 111%.
With `Cl.NCCc1nnc(-c2ccc(F)cc2)[nH]1` [Compound 34, 2-(5-(4-Fluorophenyl)-4H-1,2,4-triazol-3-yl)ethan-1-amine Hydrochloride], the melting point lay within 253 to 256 °C. Moreover, in data set [1], the EC50 was more than 1 µM and the Emax came to 169%.
For `Cl.NCCc1nnc(COc2ccccc2)[nH]1` [Compound 17, 2-(5-(Phenoxymethyl)-4H-1,2,4-triazol-3-yl)ethan-1-amine Hydrochloride], the melting point lay within 206 to 207 °C. For the same compound, the EC50 result in data set [1] (setting [2]) was “inactive”. Besides, the “Emax: maximum observed activation of TAAR1 relative to that observed for 1 μM of β-PEA” value in data set [1] is “inactive”.
As to `Cc1ccc(-c2nnc(CCN)[nH]2)cc1C.Cl` [Compound 37, 2-(5-(3,4-Dimethylphenyl)-4H-1,2,4-triazol-3-yl)ethan-1-amine Hydrochloride], the melting point was in the range of 231 to 234 °C. Besides, in data set [1], the EC50 was more than 1 µM and the Emax was 70%.
In data set [1] (setting [2]), `Cl.NCCc1nnc(-c2ccccc2[N+](=O)[O-])[nH]1` [Compound 27, 2-(5-(2-Nitrophenyl)-4H-1,2,4-triazol-3-yl)ethan-1-amine Hydrochloride] came in with an EC50 of more than 1 µM. The “Emax: maximum observed activation of TAAR1 relative to that observed for 1 μM of β-PEA” value in data set [1] is 69.
`COc1ccc(-c2ccc(-c3nnc(CCN)[nH]3)cc2)cc1.Cl` [Compound 58, 2-(5-(4′-Methoxy-(1,1′-biphenyl)-4-yl)-4H-1,2,4-triazol-3-yl)ethan-1-amine Hydrochloride] returned a melting point of 300 to 301 °C. In data set [1], the EC50 was found to be 0.006 µM and the maximal effect (Emax) was determined as 97%.
Consider `Cc1cc(-c2nnc(CCN)[nH]2)ccc1I.Cl` [Compound 42, 2-(5-(4-Iodo-3-methylphenyl)-4H-1,2,4-triazol-3-yl)ethan-1-amine Hydrochloride], for which the melting point was 225 to 227 °C. Besides, in data set [1], the EC50 was more than 1 µM and the maximum response (Emax) was determined as 76%.
Take “2-(5-(4-Ethylphenyl)-4H-1,2,4-triazol-3-yl)ethan-1-amine Hydrochloride [Compound 26]”: in data set [1] (setting [2]), the concentration giving a half-maximal response (EC50) was more than 1 µM. Further, the “Emax: maximum observed activation of TAAR1 relative to that observed for 1 μM of β-PEA” value in data set [1] is reported as 71.
The corresponding values for `CN(C)c1cccc(-c2nnc(CCN)[nH]2)c1.Cl` [Compound 24, 3-(5-(2-Aminoethyl)-4H-1,2,4-triazol-3-yl)-N,N-dimethylaniline Hydrochloride] are “inactive” and “inactive”.
Consider `Cl.NCCc1nnc(-c2cccc(-c3ccc(F)cc3F)c2)[nH]1` [Compound 66], for which, in data set [1], the “Emax: maximum observed activation of TAAR1 relative to that observed for 1 μM of β-PEA” value turned out to be 91.
On to `Cl.NCCc1nnc(-c2cccc(C(F)(F)F)c2)[nH]1` [Compound 18], for which the EC50 result in data set [1] (setting [2]) is “inactive”. The “Emax: maximum observed activation of TAAR1 relative to that observed for 1 μM of β-PEA” value in data set [1] was “inactive”.
In turn, `Cl.NCCc1nnc(-c2cccc(-c3ccc(F)cc3F)c2)[nH]1` [Compound 66, 2-(5-(4′-(2′,4′-Difluoro-(1,1′-biphenyl)-3-yl)-4H-1,2,4-triazol-3-yl)ethan-1-amine Hydrochloride] had an EC50 in data set [1] (setting [2]) of 0.3 µM.
On to “2-(5-(3-Methyl-4-[([4-(trifluoromethyl)benzyl]oxy)phenyl]-4H-1,2,4-triazol-3-yl)) Hydrochloride [Compound 49]”, for which the EC50 result in data set [1] (setting [2]) was “inactive”. In data set [1], the “Emax: maximum observed activation of TAAR1 relative to that observed for 1 μM of β-PEA” value was “inactive”.

A word on the EC50: it is the concentration needed to bring the measured effect to its halfway point. The low end stands for an effect from little substance, the high end for a need for much substance. By Emax is commonly meant the greatest response seen or fitted, relative to the assay's reference. For orientation: melting point means the temperature of the solid-liquid transition.
